Laboratory results as given in US9394268B2, “(E)-1-(5-methoxy-2,2-dimethyl-2H-chromen-8-yl)-3-(4-methoxyphenyl)prop-2-en-1-one and analogs thereof, as well as preparation method and use thereof” (Sichuan University, priority 2012, dated 2016).

Assays:
Format in all cases: cell-based
HCT116 = assay: Cell proliferative assay (MTT), HCT116; conditions: Homo sapiens, HCT-116, 72 h incubation, read-out: IC50s HCT116
Description: (§1) The synthesized compounds were evaluated for their cytotoxin activity against suspended tumor cells. These cells were seeded on 96-well plates and incubated for 24 h. Selected compounds were added at various doses and incubated for 72 h, MTT was then added, and the absorbance was measured at a wavelength of 590 nm. IC50 values are expressed as the mean±SEM from the dose-response curves of at least three independent experiments.

HepG2 = assay: Cell proliferative assay (MTT), HepG2; conditions: Homo sapiens, 72 h incubation, read-out: IC50s HepG2
Description: as §1

HT29 = assay: Cell proliferative assay (MTT), HT29; conditions: Homo sapiens, HT-29, 72 h incubation, read-out: IC50s HT29
Description: as §1

SW620 = assay: Cell proliferative assay (MTT), SW620; conditions: Homo sapiens, SW-620, 72 h incubation, read-out: IC50s SW620
Description: as §1

K562 = assay: Cell proliferative assay (MTT), K562; conditions: Homo sapiens, 72 h incubation, read-out: IC50s K562
Description: as §1

LO2 = assay: Cell proliferative assay (MTT), LO2; conditions: Homo sapiens, L02, 72 h incubation, read-out: IC50s LO2
Description: as §1

SMMC-7221 = assay: Cell proliferative assay (MTT), SMMC-7221; conditions: 72 h incubation, read-out: IC50s SMMC-7221
Description: as §1

A549 = assay: Cell proliferative assay (MTT), A549; conditions: Homo sapiens, 72 h incubation, read-out: IC50s A549
Description: as §1

A375 = assay: Cell proliferative assay (MTT), A375; conditions: Homo sapiens, A-375, 72 h incubation, read-out: IC50s A375
Description: as §1

Compound | IC50 (HCT116) [µM] | IC50 (HepG2) [µM] | IC50 (HT29) [µM] | IC50 (SW620) [µM] | IC50 (K562) [µM] | IC50 (LO2) [µM] | IC50 (SMMC-7221) [µM] | IC50 (A549) [µM] | IC50 (A375) [µM]
CCOc1cc(/C=C/C(=O)c2ccc(OC)c3c2OC(C)(C)C=C3)ccc1O [SKLBC-26, (E)-3-(3-ethoxy-4-hydroxyphenyl)-1-(5-methoxy-2,2-dimethyl-2H-chromen-8-yl)prop-2-en-1-one] | > 10 | > 10 | > 10 | > 10 | > 10 | – | – | – | –
COc1ccc(C(=O)/C=C/c2cccc(F)c2)c2c1C=CC(C)(C)O2 [SKLBC-7, (E)-3-(3-fluorophenyl)-1-(5-methoxy-2,2-dimethyl-2H-chromen-8-yl)prop-2-en-1-one] | 1.92 | > 10 | > 10 | > 10 | > 10 | – | – | – | –
COc1ccc(/C=C/C(=O)c2ccc(OC)c3c2OC(C)(C)C=C3)cn1 [SKLBC-21, (E)-1-(5-methoxy-2,2-dimethyl-2H-chromen-8-yl)-3-(6-methoxypyridin-3-yl)prop-2-en-1-one] | > 10 | > 10 | > 10 | > 10 | > 10 | – | – | – | –
COc1ccc(C(=O)/C=C/c2cccc(C(F)(F)F)c2)c2c1C=CC(C)(C)O2 [SKLBC-25, (E)-1-(5-methoxy-2,2-dimethyl-2H-chromen-8-yl)-3-(3-(trifluoromethyl)phenyl)prop-2-en-1-one] | 9.71 | > 10 | > 10 | > 10 | > 10 | – | – | – | –
COc1ccc(C(=O)/C=C/c2cccs2)c2c1C=CC(C)(C)O2 [SKLBC-36, (E)-1-(5-methoxy-2,2-dimethyl-2H-chromen-8-yl)-3-(thiophen-2-yl)prop-2-en-1-one] | > 10 | > 10 | > 10 | > 10 | > 10 | – | – | – | –
COc1ccccc1/C=C/C(=O)c1ccc(OC)c2c1OC(C)(C)C=C2 [SKLBC-40, (E)-1-(5-methoxy-2,2-dimethyl-2H-chromen-8-yl)-3-(2-methoxyphenyl)prop-2-en-1-one] | > 10 | > 10 | > 10 | > 10 | > 10 | – | – | – | –
COc1cccc(/C=C/C(=O)c2ccc(OC)c3c2OC(C)(C)C=C3)c1 [SKLBC-2, (E)-1-(5-methoxy-2,2-dimethyl-2H-chromen-8-yl)-3-(3-methoxyphenyl)prop-2-en-1-one] | > 10 | > 10 | > 10 | > 10 | > 10 | – | – | – | –
COc1ccc(C(=O)/C=C/c2ccccc2Cl)c2c1C=CC(C)(C)O2 [SKLBC-39, (E)-3-(2-chlorophenyl)-1-(5-methoxy-2,2-dimethyl-2H-chromen-8-yl)prop-2-en-1-one] | > 10 | > 10 | > 10 | > 10 | > 10 | – | – | – | –
COc1ccc(C(=O)/C=C/c2ccc(O)cc2)c2c1C=CC(C)(C)O2 [SKLBC-22, (E)-3-(4-hydroxyphenyl)-1-(5-methoxy-2,2-dimethyl-2H-chromen-8-yl)prop-2-en-1-one] | > 10 | > 10 | > 10 | > 10 | > 10 | – | – | – | –
COc1ccc(C(=O)/C=C/c2cc(OC)c(OC)c(OC)c2)c2c1C=CC(C)(C)O2 [SKLBC-3, (E)-1-(5-methoxy-2,2-dimethyl-2H-chromen-8-yl)-3-(3,4,5-trimethoxyphenyl)prop-2-en-1-one] | 7.65 | > 10 | > 10 | 9.15 | > 10 | – | – | – | –
COc1ccc(C(=O)/C=C/c2ccc(-c3ccccc3)cc2)c2c1C=CC(C)(C)O2 [SKLBC-11, (E)-3-([1,1′-biphenyl]-4-yl)-1-(5-methoxy-2,2-dimethyl-2H-chromen-8-yl)prop-2-en-1-one] | > 10 | > 10 | > 10 | > 10 | > 10 | – | – | – | –
COc1ccc(C(=O)/C=C/c2ccc(F)cc2)c2c1C=CC(C)(C)O2 [SKLBC-6, (E)-3-(4-fluorophenyl)-1-(5-methoxy-2,2-dimethyl-2H-chromen-8-yl)prop-2-en-1-one] | > 10 | > 10 | > 10 | > 10 | > 10 | – | – | – | –
COc1ccc(C(=O)/C=C/c2ccc(C(F)(F)F)cc2)c2c1C=CC(C)(C)O2 [SKLBC-19, (E)-1-(5-methoxy-2,2-dimethyl-2H-chromen-8-yl)-3-(4-(trifluoromethyl)phenyl)prop-2-en-1-one] | > 10 | > 10 | > 10 | > 10 | > 10 | – | – | – | –
COc1ccc(C(=O)/C=C/c2cccc(O)c2)c2c1C=CC(C)(C)O2 [SKLBC-23, (E)-3-(3-hydroxyphenyl)-1-(5-methoxy-2,2-dimethyl-2H-chromen-8-yl)prop-2-en-1-one] | > 10 | > 10 | > 10 | > 10 | > 10 | – | – | – | –
COc1ccc(C(=O)/C=C/c2ccc(-n3ccnc3)cc2)c2c1C=CC(C)(C)O2 [SKLBC-15, (E)-3-(4-(1H-imidazol-1-yl)phenyl)-1-(5-methoxy-2,2-dimethyl-2H-chromen-8-yl)prop-2-en-1-one] | 8.05 | > 10 | 6.6 | > 10 | > 10 | – | – | – | –
COc1ccc(C(=O)/C=C/c2cc(Cl)ccc2O)c2c1C=CC(C)(C)O2 [SKLBC-38, (E)-3-(5-chloro-2-hydroxyphenyl)-1-(5-methoxy-2,2-dimethyl-2H-chromen-8-yl)prop-2-en-1-one] | 5.24 | > 10 | > 10 | > 10 | > 10 | – | – | – | –
COc1ccc(C(=O)/C=C/c2ccsc2)c2c1C=CC(C)(C)O2 [SKLBC-27, (E)-1-(5-methoxy-2,2-dimethyl-2H-chromen-8-yl)-3-(thiophen-3-yl)prop-2-en-1-one] | > 10 | > 10 | > 10 | > 10 | > 10 | – | – | – | –
COc1cc(OC)c(OC)cc1/C=C/C(=O)c1ccc(OC)c2c1OC(C)(C)C=C2 [SKLBC-5, (E)-1-(5-methoxy-2,2-dimethyl-2H-chromen-8-yl)-3-(2,4,5-trimethoxyphenyl)prop-2-en-1-one] | > 10 | > 10 | > 10 | > 10 | > 10 | – | – | – | –
COc1ccc(C(=O)/C=C/c2ccc(Cl)c(Cl)c2)c2c1C=CC(C)(C)O2 [SKLBC-37, (E)-3-(3,4-dichlorophenyl)-1-(5-methoxy-2,2-dimethyl-2H-chromen-8-yl)prop-2-en-1-one] | 9.44 | > 10 | > 10 | > 10 | > 10 | – | – | – | –
COc1ccc(C(=O)/C=C/c2ccc(N(c3ccccc3)c3ccccc3)cc2)c2c1C=CC(C)(C)O2 [SKLBC-13, (E)-3-(4-(diphenylamino)phenyl)-1-(5-methoxy-2,2-dimethyl-2H-chromen-8-yl)prop-2-en-1-one] | 4.53 | > 10 | > 10 | > 10 | > 10 | – | – | – | –
COc1ccc(C(=O)/C=C/c2ccc(OC)c(OC)c2OC)c2c1C=CC(C)(C)O2 [SKLBC-24, (E)-1-(5-methoxy-2,2-dimethyl-2H-chromen-8-yl)-3-(2,3,4-trimethoxyphenyl)prop-2-en-1-one] | > 10 | > 10 | > 10 | > 10 | > 10 | – | – | – | –
COc1ccc(C(=O)/C=C/c2ccccc2)c2c1C=CC(C)(C)O2 [SKLBC-20, (E)-1-(5-methoxy-2,2-dimethyl-2H-chromen-8-yl)-3-phenylprop-2-en-1-one] | > 10 | > 10 | > 10 | > 10 | > 10 | – | – | – | –
COc1ccc(C(=O)/C=C/c2ccc(Cl)cc2)c2c1C=CC(C)(C)O2 [SKLBC-34, (E)-3-(4-chlorophenyl)-1-(5-methoxy-2,2-dimethyl-2H-chromen-8-yl)prop-2-en-1-one] | > 10 | > 10 | > 10 | > 10 | > 10 | – | – | – | –
COc1ccc(C(=O)/C=C/c2cccc3ccccc23)c2c1C=CC(C)(C)O2 [SKLBC-32, (E)-1-(5-methoxy-2,2-dimethyl-2H-chromen-8-yl)-3-(naphthalen-1-yl)prop-2-en-1-one] | > 10 | > 10 | > 10 | > 10 | > 10 | – | – | – | –
COc1ccc(/C=C/C(=O)c2ccc(OC)c3c2OC(C)(C)C=C3)cc1OC(=O)c1ccco1 [SKLBC-68, (E)-2-methoxy-5-(3-(5-methoxy-2,2-dimethyl-2H-chromen-8-yl)-3-oxoprop-1-en-1-yl)phenyl furan-2-carboxylate] | – | 0.068 | – | – | 0.245 | > 10 | 1.62 | 0.8 | 0.68
COc1ccc(/C=C/C(=O)c2ccc(OC)c3c2OC(C)(C)C=C3)cc1OC(=O)CCCc1ccc(N(CCCl)CCCl)cc1 [SKLBC-65, (E)-2-methoxy-5-(3-(5-methoxy-2,2-dimethyl-2H-chromen-8-yl)-3-oxoprop-1-en-1-yl)phenyl 4-(4-(bis(2-chloroethyl)amino)phenyl)butanoate] | – | 2.1 | – | – | 0.6 | > 10 | 0.98 | 0.55 | 3.8
